For one experiment, the target named is T1, 5-HT1 receptor (Rattus norvegicus, UniProt P19327).
T1 construct: measuring their ability to induce the 5-HT behavioural syndrome in rats; from tissue; host or cells: living rats (in vivo, intravenous dosing); endogenous receptor of the central nervous system
T1 sequence (P19327 1-422): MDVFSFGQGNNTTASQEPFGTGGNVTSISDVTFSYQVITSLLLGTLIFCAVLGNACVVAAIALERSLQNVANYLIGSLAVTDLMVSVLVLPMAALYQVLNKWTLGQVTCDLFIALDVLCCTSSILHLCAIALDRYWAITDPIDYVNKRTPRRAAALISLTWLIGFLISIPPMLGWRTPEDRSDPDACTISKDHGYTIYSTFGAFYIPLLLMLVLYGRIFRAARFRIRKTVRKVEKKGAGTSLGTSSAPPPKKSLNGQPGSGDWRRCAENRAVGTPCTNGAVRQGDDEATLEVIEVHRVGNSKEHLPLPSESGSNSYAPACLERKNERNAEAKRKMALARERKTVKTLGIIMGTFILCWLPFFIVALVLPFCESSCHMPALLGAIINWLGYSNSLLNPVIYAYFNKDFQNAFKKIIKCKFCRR
Put plainly: 5-HT1 receptor agonist activity in vivo: induction of the 5-HT behavioural syndrome in rats. As to conditions: iv, sequential up-down method. The protocol: The compounds are evaluated for 5-HT1 receptor agonist activity in vivo by measuring their ability to induce the 5-HT behavioural syndrome in rats (A. R. Green, Neuropharmacology, 1984, 23 1521). Compounds which induce 5-HT-related behaviours are adjudged to be `active`, and a sequential up-down method (A. W. Kimball, W. T. Burnett, and D. G. Doherty, Radiation Research, 1957, 7, 1) is used to determine ED50 values for the compounds.

Experiment [1] relates to arterial blood pressure and heart rate. Put plainly: Hypotensive activity in anaesthetised normotensive rats. The class given is in vivo, rat (Sprague-Dawley). As to conditions: iv. The protocol:
The compounds are tested for hypotensive activity in anaesthetised normotensive rats. In this procedure adult male Sprague-Dawley rats weighing 200-400 g are anaesthetised with 70 mg/kg pentobarbitone sodium, i.p. The fermoral (or jugular) vein, the femoral (or carotid) artery, and the trachea are cannulated and the vascular canulae then flushed with 0.3 ml of heparinised saline (125 U/ml). The arterial blood pressure and heart rate are continuously monitored. Top-up doses of 6 or 12 mg/kg anaesthetic are administered as required until a stable base-line is obtained. A cumulative dose-response curve to the test compound is then obtained, using a 5 min dose interval. Each dose is administered in a volume of […] and flushed in with 0.5 ml saline. Systolic, diastolic, and mean arterial blood pressure and heart rate are then calculated 5 min after each dose and compared with the pre-dose value. Mean results from six rats are analysed using analysis of variants. The ED20 (ie the dose giving a 20% fall in mean arterial blood pressure) is also calculated. […] The minimum effective dose of this compound which produced a significant decrease in blood pressure was 1 μg/kg iv, and the ED20 was 5.2 μg/kg iv.

The mark [2] stands for this setting: anaesthetised normotensive male Sprague-Dawley rats, cumulative dose-response, 5 min after each dose.

These results are taken from patent US5164385A, “Azetidine derivatives and hypotensive compositions thereof” (John Wyeth & Brother, Ltd., priority 1990, dated 1992).

For orientation: ED50 means the dose that gives a 50% effect, or the effect in half of the subjects. The low end stands for an effect at a small dose, the high end for a need for a large dose.

As for `Oc1cccc2c1CC(N1CCC1)CC2` (centres unmarked) [Example 3, 7-(1-Azetidinyl)-5,6,7,8-tetrahydro-1-naphthalenol], the ED50 at 5-HT1 receptor was determined as 70 µg/kg. In experiment [1] (Rattus norvegicus, 5 min, anaesthetised normotensive rats, read-out: ED20 (dose giving a 20% fall in mean arterial blood pressure)), the ED20 turned out to be 5.2 µg/kg. Besides, the minimal effective dose in experiment [1] (Rattus norvegicus, 5 min, anaesthetised normotensive rats, read-out: minimum effective dose which produced a significant decrease in blood pressure) was 1 µg/kg. Moreover, in experiment [1] (setting [2]), the “effect on blood pressure” value is “dose-related falls” and the “effect on heart rate” value was “dose-related falls”.
